Test results published in patent US20190336496A1, “SELECTIVE BCL-2 INHIBITORS IN COMBINATION WITH AN ANTI-PD-1 OR AN ANTI-PD-L1 ANTIBODY FOR THE TREATMENT OF CANCERS” (AbbVie Inc., priority 2018, published 2019).

Tests used:
[1] = system: CD4 T-cells co-cultured with MoDCs; assay: Mixed lymphocyte reaction (MLR) assay; type: cell-based, human
Protocol: Mixed Lymphocyte Reaction (MLR) assay was used to examine venetoclax effect on T-cell function in response to immune stimulation. Monocytic-derived dendritic cells (MoDCs) were generated from fresh human blood. PBMCs were isolated using a Ficoll gradient. The PBMCs were allowed to adhere for 2 hours. After 2 hours, cells in suspension were removed. Fresh AIM V™ medium (ThermoFisher cat. #12055091) supplemented with granulocyte-macrophage colony-stimulating factor (GM-CSF, 80 ng/mL) and IL-4 (50 ng/mL) was added to the culture. After 5 days, the MoDCs were stimulated with IL-1α and TNF-α (0.2 ng/mL each) for 48 hours to increase major histocompatibility complex class II molecules (MHCII) expression. These activated MoDCs were then co-cultured with CD4 T-cells (Biospecialty Corp.) at a ratio of 10:1 (T-cells:MoDCs) in a mixed lymphocyte reaction (MLR). The cells were treated with control IgG (Isotype) or anti-PD-1 antibody (nivolumab or ABBV-181 along with either dimethyl sulfoxide (DMSO) or BCL-2 inhibitors venetoclax (Compound (I)) or Compounds (II) or (III). Antibodies were added at 10 μg/mL and the compound concentrations of venetoclax were as indicated in FIG. 11. The MLR was cultured for 5 days, after which the cells were analyzed by flow cytometry using an LSRFortessa™ X-20 instrument (BD Biosciences) to determine cell number and functional cytokine (IFNγ) responses.

EMT6 tumors = assay: EMT6 mouse mammary carcinoma syngeneic model; type: in vivo; details: EMT6; venetoclax 50 mg/kg daily for 14 days
Protocol: (§1) All experiments were conducted in compliance with the National Institutes of Health Guide for Care and Use of Laboratory Animals guidelines in a facility accredited by the Association for the Assessment and Accreditation of Laboratory Animal Care (AAALAC). BALB/c, C57BL/6, CB6F1 (C57BL/6 bred with BALB/c) and SCID mice were obtained from Charles River (Wilmington, Mass.). SCID mice have severe combined immune deficiency (SCID) and are characterized by an absence of functional T- and B-cells.
EMT6, mouse mammary carcinoma and CT26, mouse colon carcinoma, cell lines were obtained from ATCC (Manassas, Va.). MC38, mouse colon carcinoma cell line was obtained from National Cancer Institute (NCI).
Compound (I),venetoclax, was formulated in 10% ethanol+30% PEG 400+60% Phosal® 50PG. Venetoclax was administered orally once a day for 14 days at 50 mg/kg/day.
1×10^5 CT26, EMT6 or MC38 cells were subcutaneously injected with Matrigel into the flanks of BALB/c, CB6F1 or C57BL/6 mice, respectively. Seven days later, mice were randomized to treatment groups of vehicle, venetoclax, anti-PD-1/PD-L1 or the combination of venetoclax and anti-PD-1/PD-L1. Tumor volume was determined via measurements of the length (L) and width (W) of the tumor with electronic calipers and the volume was calculated according to the following equation: V=L×W2/2 using Study Director Version 2.1.11 (Studylog Systems Inc., South San Francisco). Complete response (CR) was defined as reduction in tumor volume to ≤25 mm^3 over at least 3 successive measurements.

4T1 = assay: Venetoclax cell killing (CellTiter-Glo); type: cell-based, murine; details: Mus musculus, 4T1, 72 h; Breast Cancer; 10% FBS; 3 days
Protocol: (§2) Solid tumor cell lines were obtained from American Type Culture Collection (ATCC, Manassas, Va.) or the National Cancer Institute (NCI) and cultured in humidified incubators at 37° C. (5% CO2) in appropriate media (specified by supplier) supplemented with 10% fetal bovine serum (FBS) or 10% human serum (HS). 24 hours after plating into 96-well or 384-well tissue culture plates, venetoclax was added to cells at various concentrations (typically 0.010 to 10 μM in half-log increments) to perform concentration-response assessments of cell killing. After 1 to 5 days of culture in the presence of venetoclax, cell viability was assessed using CellTiter-Glo® reagent (Promega). IC50 values were determined by non-linear regression analysis of the concentration response data (Table 5 and Table 6).

B16F1 = assay: Venetoclax cell killing (CellTiter-Glo); type: cell-based, murine; details: Mus musculus, B16-F1, 72 h; Melanoma; 10% FBS; 3 days
Protocol: as §2

B16F10 = assay: Venetoclax cell killing (CellTiter-Glo); type: cell-based, murine; details: Mus musculus, B16-F10, 72 h; Melanoma; 10% FBS; 3 days
Protocol: as §2

CT26 = assay: Venetoclax cell killing (CellTiter-Glo); type: cell-based, murine; details: Mus musculus, CT26, 72 h; Colorectal; 10% FBS; 3 days
Protocol: as §2

LL2 = assay: Venetoclax cell killing (CellTiter-Glo); type: cell-based, murine; details: Mus musculus, LL/2, 72 h; Lung Cancer; 10% FBS; 3 days
Protocol: as §2

EMT6 = assay: Venetoclax cell killing (CellTiter-Glo); type: cell-based, murine; details: Mus musculus, EMT6, 72 h; Breast Cancer; 10% FBS; 3 days
Protocol: as §2

MC38 = assay: Venetoclax cell killing (CellTiter-Glo); type: cell-based, murine; details: Mus musculus, MC-38, 72 h; Colorectal; 10% FBS; 3 days
Protocol: as §2

Renca = assay: Venetoclax cell killing (CellTiter-Glo); type: cell-based, murine; details: Mus musculus, 72 h, Renal Adenocarcinoma, 10% FBS, 3 days
Protocol: as §2

MC38 tumors = assay: MC38 model in immune deficient SCID mice; type: in vivo, mouse
Protocol: as §1
To further test the direct effects of venetoclax on the immune cells, SCID mice were transplanted with MC38 cells and treated with vehicle or anti-PD-1/PD-L1/venetoclax as single agent and in combinations (FIGS. 12E and 12F).

Which “IFNγ detected in the supernatant” value ([1]; MLR 5 days) does the source give for CC1(C)CCC(CN2CCN(c3ccc(C(=O)NS(=O)(=O)c4ccc(NCC5CCOCC5)c([N+](=O)[O-])c4)c(Oc4cnc5[nH]ccc5c4)c3)CC2)=C(c2ccc(Cl)cc2)C1 [Compound (I), venetoclax] here?
The value was “same amount”.

What about the “proportion of CD4+ T-cells that produce IFNγ” value ([1]; MLR 5 days, with isotype control or anti-PD-1 antibody) of the same compound?
Its value is “increase”.

What about the “number of CD4+ T-cells” value ([1]; MLR cultured 5 days, antibodies at 10 μg/mL) of the same compound?
The value was “reduced”.

What about the “CD3+ T cell numbers” value ([1]; MLR, BCL-2 inhibitors at 1 μM) of the same compound?
Its value is “declined comparably”.

And the “production of IFNγ (secreted)” value ([1]; MLR, BCL-2 inhibitors at 1 μM)?
Its value is “not antagonized”.

What about the “proportion of CD3+ T-cells that produce IFNγ” value ([1]; MLR, BCL-2 inhibitors at 1 μM) of the same compound?
The value was “increase”.

And the “anti-tumor activity as single agent” value (EMT6 tumors)?
The value was “modest activity”.

What about the IC50 (4T1) of the same compound?
The IC50 was greater than 10 µM.

And the IC50 (B16F1)?
Its IC50 is greater than 10 µM.

And the IC50 (B16F10)?
Its IC50 is greater than 10 µM.

And the IC50 (CT26)?
The IC50 was greater than 10 µM.

What about the IC50 (LL2) of the same compound?
The IC50 was greater than 10 µM.

What about the IC50 (EMT6) of the same compound?
The IC50 was greater than 10 µM.

What about the IC50 (MC38) of the same compound?
Its IC50 is roughly 10 µM.

What about the IC50 (Renca) of the same compound?
The IC50 was greater than 10 µM.

And the “anti-tumor efficacy / tumor growth in SCID mice” value (MC38 tumors)?
The value was “did not show anti-tumor efficacy”.
